Experiment [1] relates to Renca renal cell carcinoma cells. Kind of experiment: qRT-PCR, combination with ADU-S100, Renca cells. The experiment is classed as cell-based, Mouse. The note with it: for IFNB1 mRNA expression: 2 μM Compound 1, 10 μM ADU-S100, 4 h; for CCL5 mRNA expression / CXCL10 mRNA expression: 2 μM Compound 1, 10 μM ADU-S100, 24 h; for increase in IFNB1, CCL5 and CXCL10 with siRNA knockdown of STING: siSTING. How it is done: Renca cells were grown in RPMI-1640 medium containing 10% fetal bovine serum. Cells were then incubated for 2 days at 37 degrees Celsius, 5% CO2, and 95% humidity. Renca cells were reversely transfected with scrambled siRNA control (siSCR) or siRNA targeting STING (siSTING). After transfection for 48 h, cells were treated with DMSO control, 2 μM Compound 1 or 2 μM Compound 2 in combination with 10 μM ADU-S100 for 4 h (for Ifnb1) or 24 h (Ccl5 and Cxcl10). Cells were washed with PBS and RNA was isolated using the PureLink RNA kit (#12183018A, Thermo Fisher Scientific) according to the manufacturer's protocol. Genomic DNA was removed using DNA-binding columns (RNeasy plus kit, #74134, Qiagen) and/or DNase treatment (#12185010, Thermo Fisher Scientific). RNA was quantified using NanoDrop (Thermo Fisher Scientific) and 50 ng/μL RNA was used for cDNA synthesis with SuperScript IV VILO Master Mix (#11756050, Thermo Fisher Scientific). Quantitative RT-PCR (qRT-PCR) was run with diluted cDNA (1:25 or 1:12.5), PowerUp SYBR Green Master Mix (#A25741, Thermo Fisher Scientific), and 200 nM primers (see below) on a CFX Connect RT-PCR system (BioRad). Data was analyzed using the ΔΔCT method. Results are mean±SEM of three independent experiments.
For orientation: Real-time PCR tracks product formation cycle by cycle.

The test system is the same in experiment [2]. Kind of experiment: IncuCyte live-cell imaging, Caspase 3/7 activity, Renca cells. The following applies: 2 μM Compound 1, ADU-S100, 24 hours. The experiment is classed as cell-based. The procedure:
Renca cells were treated with a combination of DMSO or 2 μM Compound 1 alone or in combination with STING agonist ADU-S100 for 24 hours. Treatment with 1 μM staurosporine was used as a positive control for apoptosis induction. To assess cell proliferation, 1000 cells/well were plated in 96-well plates. After 24 h, cells were treated with compounds in 100 μL complete medium. Phase-contrast images (10×) were acquired every 3 h for 24-72 h and cell confluence (%) was calculated using the IncuCyte S3 live-cell analysis system (Sartorius). For monitoring apoptosis, 5 μM of IncuCyte Caspase-3/7 Green Dye (#4440, Sartorius) was added to the medium at the time of treatment. Both phase-contrast and green fluorescent images were captured. Caspase 3/7 induction was calculated by counting green fluorescent objects per mm^2 and dividing it by the percentage of cell confluency.

The test system of experiment [3] is CT26 colorectal cancer cells. The experiment in a line: qRT-PCR, combination with cGAMP, CT26 cells. The note with it: 24 hours, 5 μM Compound 1 or 10 μM Compound 2, 10 mg/mL cGAMP. The experiment is classed as cell-based, Mouse. The procedure: (§1) CT26 cells were treated for 24 hours with DMSO or VPS34 inhibitors (5 μM Compound 1 or 10 μM Compound 2) in combination with 10 mg/mL STING agonist cGAMP (green bars). Cells were washed with PBS and RNA was isolated using the PureLink RNA kit (#12183018A, Thermo Fisher Scientific) according to the manufacturer's protocol. Genomic DNA was removed using DNA-binding columns (RNeasy plus kit, #74134, Qiagen) and/or DNase treatment (#12185010, Thermo Fisher Scientific). RNA was quantified using NanoDrop (Thermo Fisher Scientific) and 50 ng/μL RNA was used for cDNA synthesis with SuperScript IV VILO Master Mix (#11756050, Thermo Fisher Scientific). Quantitative RT-PCR (qRT-PCR) was run with diluted cDNA (1:25 or 1:12.5), PowerUp SYBR Green Master Mix (#A25741, Thermo Fisher Scientific), and 200 nM primers (see below) on a CFX Connect RT-PCR system (BioRad). Data was analyzed using the ΔΔCT method. Results are mean±SEM of three independent experiments.

In the next experiment the test system is YUMM 1.7 melanoma cells. Kind of experiment: Cytokine secretion assay, combination with cGAMP, YUMM1.7 cells. Type of experiment: cell-based, mouse. The following applies: 24 hours, 5 μM Compound 1 or 10 μM Compound 2, 10 mg/ml cGAMP. How it is done:
as §1, with “YUMM1.7” for “CT26”, “mg/ml” for “mg/mL”
Cell culture medium was centrifuged at 1600 rpm for 10 min at 4° C. and obtained supernatant stored at −80° C. Cytokine levels were quantified using following Meso Scale Discovery (MSD) assays: mouse U-PLEX RANTES/CCL5 (#K152A2K) and U-PLEX IP-10/CXCL10 (#K152UFK). Assays were run on the SECTOR Quickplex Imager and analyzed using Discovery Workbench version 4.0 (MSD).

This is an account of results in patent publication US20250127790A1, “COMBINATION THERAPY USING VPS34 INHIBITORS” (Deciphera Pharmaceuticals, LLC, priority 2021, published 2025).

For the compound `Nc1ncnc2c1ncn2[C@@H]1O[C@@H]2COP(=O)([S-])O[C@@H]3[C@H](O)[C@@H](COP([O-])(=S)O[C@H]2[C@H]1O)O[C@H]3n1cnc2c(N)ncnc21.[Na+].[Na+]` (stereo partly drawn) [ADU-S100, reference compound], in experiment [1], the “IFNB1 mRNA expression” value was “increased”; the “CCL5 mRNA expression” value was “increased”; the “CXCL10 mRNA expression” value is given as “increased”; the “increase in IFNB1, CCL5 and CXCL10 with siRNA knockdown of STING” value is recorded as “blocked”. For the same compound, the “Caspase 3/7 activity” value in experiment [2] is reported as “mild effects”.

With `C[C@@H]1COCCN1c1cc(N2CCCC[C@@H]2C(F)(F)F)[nH]c(=O)c1` [Compound 1, 4-((R)-3-methylmorpholino)-6-((R)-2-(trifluoromethyl)piperidin-1-yl)pyridin-2(1H)-one], in experiment [1], the “IFNB1 mRNA expression” value is recorded as “did not significantly increase”; the “CCL5 mRNA expression” value is on record as “did increase”; the “CXCL10 mRNA expression” value was “did increase”; the “increase in IFNB1, CCL5 and CXCL10 with siRNA knockdown of STING” value is “blocked”. The “Caspase 3/7 activity” value in experiment [2] was “increased”. Further, in experiment [3], the “CCL5 mRNA expression” value is given as “increased” and the “CXCL10 mRNA expression” value is listed as “increased”. In the experiment on YUMM 1.7 melanoma cells, the CCL5 protein secretion result is given as “increased” and the CXCL10 protein secretion entry is on record as “increased”.

In the case of `C[C@@H]1COCCN1c1cc(=O)n2c(n1)N(Cc1cncc(Cl)c1)[C@H](C(F)(F)F)CC2` [Compound 2, (S)-9-((5-chloropyridin-3-yl)methyl)-2-((R)-3-methylmorpholino)-8-(trifluoromethyl)-6,7,8,9-tetrahydro-4H-pyrimido[1,2-a]pyrimidin-4-one], in experiment [3], the “CCL5 mRNA expression” value is reported as “increased” and the “CXCL10 mRNA expression” value was “increased”. Moreover, in the experiment on YUMM 1.7 melanoma cells, the CCL5 protein secretion entry is “increased” and the CXCL10 protein secretion result was “increased”.
